{"source": "patent US20090264387A1", "about": "“ESTRA-1,3,5(10)-TRIENE DERIVATIVES FOR CONTRACEPTION” (GRUNENTHAL GMBH, priority 2008, published 2009)", "biological_target": "T1, recombinant human progestin receptor (Homo sapiens, UniProt P06401)", "T1 sequence (P06401 1-933)": "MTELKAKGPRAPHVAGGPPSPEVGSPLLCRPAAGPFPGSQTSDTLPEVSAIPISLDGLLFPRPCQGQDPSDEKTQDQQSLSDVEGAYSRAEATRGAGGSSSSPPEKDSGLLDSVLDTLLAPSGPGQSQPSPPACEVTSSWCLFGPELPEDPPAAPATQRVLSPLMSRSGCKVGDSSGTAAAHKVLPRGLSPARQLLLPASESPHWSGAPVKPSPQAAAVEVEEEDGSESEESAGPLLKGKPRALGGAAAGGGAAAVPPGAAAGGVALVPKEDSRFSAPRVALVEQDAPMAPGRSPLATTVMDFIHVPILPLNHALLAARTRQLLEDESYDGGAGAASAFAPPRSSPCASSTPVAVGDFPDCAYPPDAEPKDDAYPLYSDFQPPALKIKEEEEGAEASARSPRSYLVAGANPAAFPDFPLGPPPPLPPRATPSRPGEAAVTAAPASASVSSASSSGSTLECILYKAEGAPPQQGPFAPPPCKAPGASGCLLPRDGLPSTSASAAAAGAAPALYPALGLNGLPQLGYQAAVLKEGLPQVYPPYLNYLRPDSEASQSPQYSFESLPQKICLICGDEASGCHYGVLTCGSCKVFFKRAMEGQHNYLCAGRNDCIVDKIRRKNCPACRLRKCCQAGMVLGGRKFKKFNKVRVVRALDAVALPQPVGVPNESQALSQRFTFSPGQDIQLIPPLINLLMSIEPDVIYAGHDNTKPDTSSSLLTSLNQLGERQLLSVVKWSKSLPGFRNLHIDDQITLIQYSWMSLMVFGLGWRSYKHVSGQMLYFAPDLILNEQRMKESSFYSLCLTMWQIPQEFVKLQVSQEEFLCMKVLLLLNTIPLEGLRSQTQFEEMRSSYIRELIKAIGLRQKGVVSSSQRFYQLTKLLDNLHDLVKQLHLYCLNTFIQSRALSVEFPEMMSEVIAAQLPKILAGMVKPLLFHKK", "test": "Relative binding affinity to recombinant human progestin receptor", "from_the_text": "Methods of determining affinity to the aforementioned receptors are known to the person skilled in the art. In this context, reference can be made, for example, to EP-A 808 845; Lacroix et al., Bioorganic & Medicinal Chemistry 1999 (7) 2329-2341; and D. Philibert et al., Gynecol Endocrinol 1999, 13, 316-26.\nThe relative binding affinities of (2S,17S)-17-(2-hydroxypropanoyl)-3-hydroxy-17-methyl-estra-1,3,5(10),9(11)-tetraene [compound of the general formula (IV)] to the recombinant human progestin receptor, mineral corticoid receptor, androgen receptor, glucocorticoid receptor and oestrogen receptor were determined experimentally (cf. D. Philibert et al., Gynecol Endocrinol 1999, 13, 316-26)."}
{"smiles": "C[C@H](O)C(=O)[C@@]1(C)CC[C@H]2[C@@H]3CCc4cc(O)ccc4C3=CC[C@@]21C", "note": "[(2S,17S)-17-(2-hydroxypropanoyl)-3-hydroxy-17-methylestra-1,3,5(10),9(11)-tetraene]", "values": [{"measurement": "affinity to the progestin receptor (relative binding affinity)", "setting": "recombinant human receptor, progesterone reference standard", "value": "clear affinity"}, {"measurement": "selectivity for the progestin receptor", "setting": "versus other steroid receptors (mineral corticoid, androgen, glucocorticoid, oestrogen), quotient of relative binding affinities", "value": "high selectivity"}]}
